The record followed here is patent publication US20130310371A1 (priority 2012, published 2013).

The assay concerns rat. The assay can be described thus: animal or person. The assay is classed as in vivo. The following applies: ip.

With `Cc1cnc(NC(=O)C2=C(O)c3ccccc3S(=O)(=O)N2C)s1` [meloxicam], the 50% effective dose (ED50) (Rattus norvegicus, 3 h, read-out: ED50 (95% CI), applied alone) was found to be 141 mg/kg. Also, the “analgesic effect in words” value (rat, in vivo) is on record as “dose-dependent analgesic effect”.

In general, ED50 refers to the dose that gives a 50% effect, or the effect in half of the subjects.
